Assay results published in patent US20220323406A1, “METHODS AND COMPOSITIONS FOR DIFFERENTIATING STEM CELLS” (Massachusetts Institute of Technology, priority 2019, published 2022).
“Also recorded” adds a separate entry of the source.

B1: R-spondin1: a potent WNT agonist (protein, UniProt Q2MKA7 21-263, looked up)
R-spondin-1: SRGIKGKRQRRISAEGSQACAKGCELCSEVNGCLKCSPKLFILLERNDIRQVGVCLPSCPPGYFDARNPDMNKCIKCKIEHCEACFSHNFCTKCKEGLYLHKGRCYPACPEGSSAANGTMECSSPAQCEMSEWSPWGPCSKKQQLCGFRRGSEERTRRVLHAPVGDHAACSDTKETRRCTVRRVPCPEGQKRRKGGQGRRENANRNLARKESKEAGAGSRRRKGQQQQQQQGTVGPLTSAGPA

Key:
[1] = system: Paneth cells in ENR+CD organoids; test: Flow cytometry of 3D-cultured intestinal organoids, Paneth cells (lysozyme-positive, CD24-positive); assay type: cell-based, mouse; details: 160 nM KPT-8602 or 2 ng/mL Leptomycin B, ENR+CD 6 days
Excerpt: Flow cytometry analysis (3D culture). ISC-enriched organoids cultured in 3D Matrigel with ENRCV media were passaged to 24-well plate in 3D Matrigel with ENRCV. At day zero, media were replaced to ENRCD with or without indicated compounds, and media were replaced every other day. At day six, cells were washed with basal media, and then harvested from Matrigel by mechanical disruption in TrypLE Express (ThermoFisher, 12605010) to remove Matrigel and dissociate organoids to single cells. After vigorous pipetting and incubation at 37° C. for 20 min, dissociated organoids were strained through a 35 μm cell strainer into a tube (Falcon, 352235). […] Cell pellets were resuspended in FACS buffer (2% FBS in PBS), and then transferred to an ultra low-bind 96-well plate (Corning, 7007). Cells were stained with Zombie-violet viability dye (BioLegend, 423107) at 100× for viability staining and/or antibody staining solution. FITC-conjugated antibody for lysozyme (Dako, F0372) and APC-conjugated antibody for CD24 (BioLegend, 138505) were used at 100× dilution. Flow cytometry was performed using an LSR Fortessa (BD; Koch Institute Flow Cytometry Core at MIT). The data were analyzed using FlowJo v10 software.
The results of primary and secondary screening reflect a mixture of potential effects arising from small molecule treatment which may result in increases in total LYZ secretion. This includes contributions from enhanced Paneth cell differentiation, altered Paneth cell activity and changes in total cell number concurrent with differentiation. To better inform how the 6 compounds identified in the screen increased total secreted LYZ, and to isolate only those which enhance Paneth differentiation robustly, Applicants next utilized flow cytometry to measure the changes in Paneth cell representation within the treated organoids. […] Single live cells were selected by several gating strategies and Paneth cells were identified as lysozyme-high, CD24-mid, side scatter-high (SSC-high) (FIG. 27E). […] To evaluate whether the culture media supplements C and D may alter the effects of the 6 hits, Applicants also performed lysozyme assay in the canonical ENR culture condition in 3-D (because Paneth cells exist in an immature state within ENR, Applicants were unable to robustly quantify Paneth cell number via flow cytometry).
Flow cytometry. ISC-enriched organoids in 3D Matrigel culture were passaged to a 48-well plate and induced differentiation for 6 days by ENR+CD media containing DMSO or each drug indicated in the figures. DMSO- or drug-containing media were changed every other day. On day 6, cells were washed twice with basal media, then harvested from Matrigel by the mechanical disruption in TrypLE Express (Thermo, #12605010) to remove Matrigel and dissociate organoids to single cells. After vigorous pipetting and incubation at 37° C. for 15 min, the cell solution was diluted twice with basal media and centrifuged at 300 ref for 3 min. The cell pellet was resuspended in FACS buffer (PBS containing 2% FBS) and replaced into a 96-well Clear Round Bottom Ultra-Low Attachment Microplate (Corning, #7007). The cell solution was centrifuged again at 300 rcf for 3 min at 4° C. to pellet the cells. Cells were stained with Zombie-violet dye (BioLegend, #423113) at 100× for viability staining for 20 min at RT in the dark. After centrifugation for 3 min at 300 rcf, cells were fixed in fixation buffer (FACS buffer containing 1% formaldehyde (Thermo, #28906)) for 15 min on ice in the dark. Cells were centrifuged again for 3 min at 300 rcf and blocked with staining buffer (FACS buffer containing 0.5% Tween20 (Sigma, P2287)) for 15 min at RT in the dark. Pelleted cells by the centrifugation for 3 min at 300 rcf are stained with FITC-conjugated anti-lysozyme antibody (Dako, F0372) and APC-conjugated anti-CD24 antibody (Biolegend, #138505) at 100× for 45 min at RT in the dark.

[2] = system: lysozyme (LYZ) in intestinal organoids; test: Western blotting of lysozyme in 3D-cultured intestinal organoids; assay type: cell-based, mouse; details: ENR+CV, ENR+CD or ENR, 6 days
Excerpt: Western blotting. ISC-enriched organoids cultured in 3D Matrigel with ENRCV media were passaged to 24-well plate in 3D Matrigel with ENRCV. At day zero, media were replaced to ENR or ENRCD with or without indicated compounds, and media were replaced every other day. At day six, cells were harvested from Matrigel by mechanical disruption and suspended in basal media. Cell pellets were lysed with Pierce® IP lysis buffer (ThermoFisher, 87787) containing Halt™ Protease Inhibitor Cocktail, EDTA-Free (ThermoFisher, 87785) after 3-minute centrifuge at 300×g at 4° C. Cell extracts were resolved by NuPAGE® SDS-PAGE Gel system (ThermoFisher) and electroblotted onto polyvinylidene difluoride membranes using Criterion™ Blotter (Biorad). The membranes were blocked with 2% Blotting-Grade Blocker (Biorad, 1706404) in TBS-T (50 mM Tris-HCl, 150 mM NaCl, and 0.1% Tween 20, pH 8.0) and then probed with appropriate antibodies. Detection was performed using ECL Select™ Western Blotting Detection Reagent (Amersham, 45-000-999) and ImageQuant LAS4000 (GE Healthcare).
Western blotting. Organoid-containing gel was homogenized in basal medium and centrifuged at 300 rcf for 3 min. Organoid pellet was lysed with ice-cold Pierce IP Lysis Buffer (Thermo Fisher Scientific, #87787) containing Halt Protease Inhibitor Cocktail, EDTA-Free (Thermo Fisher Scientific, #87785) and incubated on ice for 20 min. The lysate was centrifuged at 17,000 rcf for 10 min, and the supernatant was combined with NuPAGE LDS Sample Buffer (Thermo Fisher Scientific, NP0007). Protein concentration was determined by Pierce 660 nm Protein Assay (Thermo Fisher Scientific, #22660) and normalized to the lowest concentration among each sample set. […] Chemiluminescent signals were detected by LAS4000 (GE Healthcare) using Amersham ECL Select Western Blotting Detection Reagent (GE Healthcare, #45-000-999), and total protein signals were obtained by Odyssey Imaging System (LI-COR Biosciences) using REVERT Total Protein Stain Kit (LI-COR Biosciences, #926-11010).

intestinal organoids = test: Population RNA-sequencing of treated organoids; assay type: cell-based, mouse; details: ENR+CV, ENR+CD or ENR
Procedure: Population RNA-sequencing. Population RNA-seq was performed using a derivative of the Smart-Seq2 protocol for single cells. In brief, organoid media was aspirated and RLT+BME (Qiagen) was added to each well, and plate shaken for 30 minutes to fully lyse. Lysate was aliquoted into 4 identical fractions and stored at −80° C. until reverse transcription. RNA lysate was thawed and cleaned with a 2.2×SPRI ratio using Agencourt RNAClean XP beads (Beckman Coulter, A63987). RNA-seq was performed on a bulk population of sorted basal cells using Smart-Seq2 chemistry, starting with a 2.2×SPRI ratio cleanup. After oligo-dT priming, Maxima H Minus Reverse Transcriptase (ThermoFisher EP0753) was used to synthesize cDNA with an elongation step at 52° C. before PCR amplification (15 cycles for tissue, 18 cycles for sorted basal cells) using KAPA HiFi PCR Mastermix (Kapa Biosystems KK2602). Sequencing libraries were prepared using the Nextera XT DNA tagmentation kit (Illumina FC-131-1096) with 250 pg input for each sample. Libraries were pooled post-Nextera and cleaned using Agencourt AMPure SPRI beads with successive 0.7× and 0.8× ratio SPRIs and sequenced with an Illumina 75 Cycle NextSeq500/550v2 kit (Illumina FC-404-2005) with loading density at […], with paired end 35 cycle read structure. Samples were sequenced at an average read depth of 8.44 million reads per sample and a total of 96 samples.
Organoid samples were aligned to the Mm10 genome and transcriptome using STAR and RSEM. […] For module scoring with the in vivo Paneth and enteroendocrine cell-defining genes, Applicants used previously published gene sets and computed per sample module scores through the Seurat package.

[3] = Roberts et al, 1986; cited from earlier work
[4] = Newlands et al, 1996; cited from earlier work
ISCs / Paneth cells = details: Hayase et al., 2017; cited from earlier work

| Molecule | Paneth cell representation / proportion in organoids [1] | LYZ abundance per-mass protein (Western blot) [2] | secretory cell gene set scores (Paneth, goblet, EEC) from bulk transcripts (intestinal organoids) | Paneth cell representation / proportion in organoids ([1]; listed as leptomycin B) | tolerability in animals [3] | tolerability in humans [4] | alpha-defensin secretion and dysbiosis in mice with GvHD (ISCs / Paneth cells) |
| --- | --- | --- | --- | --- | --- | --- | --- |
| NC(=O)/C(=C/n1cnc(-c2cc(C(F)(F)F)cc(C(F)(F)F)c2)n1)c1cncnc1 [KPT-8602] | statistically significant increases in Paneth cell representation; also recorded: statistically significant increases in the Paneth cell fraction; also recorded: increased the proportion of PC | appreciably increase LYZ abundance | increase secretory cells (Paneth, goblet, and EEC) | – | – | – | – |
| CCC(=C/[C@H](C)C/C=C/C(C)=C/[C@@H](C)C(=O)[C@@H](C)[C@H](O)[C@@H](C)C/C(C)=C/C(=O)O)/C=C/[C@@H]1OC(=O)C=C[C@@H]1C [Leptomycin B] | statistically significant increases in Paneth cell representation; also recorded: statistically significant increases in the Paneth cell fraction | appreciably increase LYZ abundance | – | increased the proportion of PC | poorly tolerated with marked gastrointestinal toxicity | poorly tolerated with marked gastrointestinal toxicity | – |
| B1 | – | – | – | – | – | – | elevate the secretion of alpha-defensins and resolve dysbiosis seen in mice with GvHD |
